The test system of data set [1] is SARS-CoV-2. The format is cell-based. Conditions: read-out: EC50 +CP.
The nature of data set [2]: Solubility studies of bisulfite prodrugs in H2O. The format is physicochemical. The conditions noted are these: aqueous media, 25 °C.

In the case of `COc1cccc2[nH]c(C(=O)N[C@@H](CC3CC3)C(=O)N[C@H](C=O)C[C@@H]3CCNC3=O)cc12` [1k], the EC50 (in general, the concentration that produces a half-maximal response) in data set [1] is 270 ± 400 nM.
For `CC(C)C[C@H](NC(=O)OCc1ccccc1)C(=O)N[C@@H](C[C@@H]1CCNC1=O)C(O)S(=O)(=O)[O-].[K+]` (some centres unmarked) [3a], the “increase in molar solubility compared to GC376” value in data set [2] is listed as “approximately 30%”.
